Patent US7704985B2, “Treatment of irritable bowel syndrome and related bowel diseases” (The Board of Regents of the University of Texas System, priority 2002, dated 2010)

Test system: acetic acid sensitized rats
Test: Behavioral response to graded colorectal distention (CRD) in neonatally acetic acid sensitized rats
Type: in vivo, Sprague Dawley rat
Settings: oral, 1.5 mg/kg body weight in corn oil daily for two weeks; graded CRD 10 mm-80 mm Hg; behavioral response grading 0-3
Description: Neonatal sensitization with acetic acid: Description of the model. It was previously shown that transient noxious stimulation of the colon during postnatal development can cause long-lasting hyperalgesia, despite complete resolution of the initiating event. In a variation of this technique, 0.3% acetic acid was instilled into the rectum of rats at postnatal days 7-10. […] By contrast, when rats are treated with acetic acid as adults, and tested after a similar period of time, no sensitization is observed. Sprague Dawley rat pups were sensitized on neonatal day 10 with acetic acid. In brief, a thin polyethylene tubing (P-90 was introduced gently into the rectum 2 cm from the anus. 0.2 ml of 0.5% glacial acetic acid in normal saline was injected through the tube into the colo rectum. The pups were allowed to grow into adults. When the rats were approximately eight weeks old they were weighed and their behavioral responses to graded (10 mm-80 mm Hg) colo rectal distention (CRD) was determined. Under light brevital (1%) anesthesia a polyethelene tube connected to a balloon (made out of a glove finger) was guided into the colo-rectum ˜8 cms from the rectum and the tube was fastened to the tail. The open end was connected to the barostat device. The rat was put into a rat restrainer allowing limited movement. […]

SMILES: CCC(=O)OCC(=O)[C@@]1(OC(=O)CC)[C@@H](C)C[C@H]2[C@@H]3CCC4=CC(=O)C=C[C@]4(C)[C@@]3(Cl)[C@@H](O)C[C@@]21C [beclamethasone dipropionate]
- pain threshold to graded CRD compared to the vehicle treated group: higher pain threshold
